Assay results from patent US12441742B2, “Naphthyridine compounds as inhibitors of KRAS” (Incyte Corporation, priority 2021, dated 2025).

Legend:
KRAS G12C [1] = target: T1, KRAS G12C (Homo sapiens, UniProt P01116, G12C); assay: KRAS_G12C cellular pERK HTRF assay; assay type: cell-based; set-up: host or cells: MIA PaCa-2; settings: MIA PaCa-2 (KRAS G12C), 4 hours; read-out: G12C_pERK (KRAS_G12C pERK assay IC50)
Protocol: MIA PaCa-2 (KRAS G12C; ATCC® CRL-1420), A427 (KRAS G12D; ATCC® HTB53), HPAF-II (KRAS G12D; ATCC® CRL-1997) and NCI-H838 (KRAS WT; ATCC® CRL-5844) cells are purchased from ATCC and maintained in RPMI 1640 media supplemented with 10% FBS (Gibco/Life Technologies). The cells are plated at 5000 cells per well (8 uL) into Greiner 384-well low volume, flat-bottom, tissue culture treated white plates and incubated overnight at 37° C., 5% CO2. The next morning, test compound stock solutions are diluted in media at 3x the final concentration, and 4 uL are added to the cells. The plate is mixed by gentle rotation for 30 seconds (250 rpm) at room temperature. The cells are incubated with the KRAS G12C and G12D compounds for 4 hours or 2 hours respectively at 37° C., 5% CO2.
4 uL of 4x lysis buffer with blocking reagent (1:25) (Cisbio) are added to each well and plates are rotated gently (300 rpm) for 30 minutes at room temperature. 4 uL per well of Cisbio anti Phospho-ERK 1/2 d2 is mixed with anti Phospho-ERK 1/2 Cryptate (1:1) are added to each well, mixed by rotation and incubated overnight in the dark at room temperature. Plates are read on the Pherastar plate reader at 665 nm and 620 nm wavelengths. IC50 determination is performed by fitting the curve of inhibitor percent inhibition versus the log of the inhibitor concentration using the GraphPad Prism 7 software.

KRAS G12C [2] = target: T1, KRAS G12C; assay: KRAS_G12C GDP-GTP exchange assay (bodipy-GDP/GppNHp, SOS1); assay type: biochemical; settings: bodipy-loaded KRAS G12C, 2 hours pre-incubation, 2 hours exchange; read-out: G12C_exchange (KRAS_G12C exchange assay IC50)
Protocol: The inhibitor potency of the exemplified compounds was determined in a fluorescence based guanine nucleotide exchange assay, which measures the exchange of bodipy-GDP (fluorescently labeled GDP) for GppNHp (Non-hydrolyzable GTP analog) to generate the active state of KRAS in the presence of SOS1 (guanine nucleotide exchange factor). Inhibitors were serially diluted in DMSO and a volume of 0.1 μL was transferred to the wells of a black low volume 384-well plate. 5 μL/well volume of bodipy-loaded KRAS G12C diluted to 5 nM in assay buffer (25 mM Hepes pH 7.5, 50 mM NaCl, 10 mM MgCl2 and 0.01% Brij-35) was added to the plate and pre-incubated with inhibitor for 2 hours at ambient temperature. Appropriate controls (enzyme with no inhibitor or with a G12C inhibitor (AMG-510)) were included on the plate. The exchange was initiated by the addition of a 5 μL/well volume containing 1 mM GppNHp and 300 nM SOS1 in assay buffer. The 10 μL/well reaction concentration of the bodipy-loaded KRAS G12C, GppNHp, and SOS1 were 2.5 nM, 500 uM, and 150 nM, respectively. The reaction plates were incubated at ambient temperature for 2 hours, a time estimated for complete GDP-GTP exchange in the absence of inhibitor. Internal compounds with confirmed binding were used as positive controls in the assay plates. Fluorescence intensities were measured on a PheraStar plate reader instrument (BMG Labtech) with excitation at 485 nm and emission at 520 nm.
Either GraphPad prism or XLfit was used to analyze the data. The IC50 values were derived by fitting the data to a four parameter logistic equation producing a sigmoidal dose-response curve with a variable Hill coefficient. Prism equation: Y=Bottom+(Top−Bottom)/(1+10^((Log IC50−X)*Hill slope)); XLfit equation: Y=(A+((B−A)/(1+((X/C)^D)))) where X is the logarithm of inhibitor concentration and Y is the response.

T1 sequence (P01116 1-188 isoform P01116-2 G12C): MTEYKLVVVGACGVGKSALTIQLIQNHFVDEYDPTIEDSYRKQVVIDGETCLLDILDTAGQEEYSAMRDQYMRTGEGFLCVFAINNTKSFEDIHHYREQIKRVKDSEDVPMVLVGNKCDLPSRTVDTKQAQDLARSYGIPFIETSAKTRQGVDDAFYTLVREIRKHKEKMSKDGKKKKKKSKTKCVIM

IC50 (KRAS G12C [1]) | IC50 (KRAS G12C [2]) | SMILES
≤ 100 nM | ≤ 100 nM | CCN(C)C1CN(c2nc3c(F)c(-c4cccc5cccc(C#N)c45)ncc3c3c2nnn3[C@H]2CCN(C(=O)/C=C/CF)[C@H](CC#N)C2)C1 [Example 15, 8-(1-((2S,4S)-2-(cyanomethyl)-1-((E)-4-fluorobut-2-enoyl)piperidin-4-yl)-4-(3-(ethyl(methyl)amino)azetidin-1-yl)-6-fluoro-1H-[1,2,3]triazolo[4,5-c][1,6]naphthyridin-7-yl)-1-naphthonitrile]
100 to 1000 nM | ≤ 100 nM | CCN(C)C1CN(c2nc3c(F)c(-c4ccc(F)c5cccnc45)ncc3c3c2nnn3[C@H]2CCN(C(=O)/C=C/CF)[C@H](CC#N)C2)C1 [Example 12, 2-((2S,4S)-4-(4-(3-(ethyl(methyl)amino)azetidin-1-yl)-6-fluoro-7-(5-fluoroquinolin-8-yl)-1H-[1,2,3]triazolo[4,5-c][1,6]naphthyridin-1-yl)-1-((E)-4-fluorobut-2-enoyl)piperidin-2-yl)acetonitrile]
– | ≤ 100 nM | C=C(F)C(=O)N1CC[C@H](n2nnc3c(N4CC(N(C)CC)C4)nc4c(F)c(-c5n[nH]c6cc(C)c(C)cc56)ncc4c32)C[C@H]1CC#N [Example 13, 2-((2S,4S)-4-(7-(5,6-dimethyl-1H-indazol-3-yl)-4-(3-(ethyl(methyl)amino)azetidin-1-yl)-6-fluoro-1H-[1,2,3]triazolo[4,5-c][1,6]naphthyridin-1-yl)-1-(2-fluoroacryloyl)piperidin-2-yl)acetonitrile]
100 to 1000 nM | ≤ 100 nM | C=C(F)C(=O)N1CC[C@H](n2nnc3c(N4CC(N(C)CC)C4)nc4c(F)c(-c5cccc6cccc(C#N)c56)ncc4c32)C[C@H]1CC#N [Example 14, 8-(1-((2S,4S)-2-(cyanomethyl)-1-(2-fluoroacryloyl)piperidin-4-yl)-4-(3-(ethyl(methyl)amino)azetidin-1-yl)-6-fluoro-1H-[1,2,3]triazolo[4,5-c][1,6]naphthyridin-7-yl)-1-naphthonitrile]
